# In patent US20180280517A1, “Nanocomposite, a Preparation Method Thereof and Method for Treating Cancer Using the Same” (National Chiao Tung University, priority 2017, published 2018):
# Experiments:
# A549 = A549 cell viability / combination index; format: cell-based; conditions: Homo sapiens
# Excerpt: (§1) The combination index or CI means a value acquired through a calculation based on the Combination Index Theorem. From CI value, the interaction between components within a drug having multiple components can be understood. For example, the CI value quantitatively defines synergism (CI<1), additive effect (CI=1), and antagonism (CI>1) among components.
# (§2) The expression fraction affected (Fa) means the fraction affected of a component according to Median-Effect Principle. A CI-Fa plot can be used to define the synergism and antagonism relation between different components.
# In another preferable embodiment, A549 cells, which are selected as cancer cell model, are respectively incubated with DMC, GEM, CHC/DMC, and CHC/GEM. In Table 4, DMC or GEM encapsulated by CHC has smaller IC50 comparing to those without CHC encapsulation, proving that an anti-cancer component encapsulated by CHC has higher toxic effect to the cells.
# In an embodiment, a plurality of CHC/DMC-GEM having different DMC to GEM ratios including 1:2.5, 1:5, 1:10, and 1:20 are respectively incubated with A549 to find a drug ratio with better synergistic effect. After calculation, a CI versus Fa plot is shown in FIG. 7 based on the viability of A549 cells. […]
# A549-ON = A549-ON cell viability / combination index; format: cell-based
# Excerpt: as §1, §2
# In a preferable embodiment, A549-ON is chosen as the cancer cell model. A549-ON is incubated with DMC, GEM, CHC/DMC, and CHC/GEM respectively to observe cell viability. In Table 3, DMC and GEM encapsulated by CHC has smaller IC50 comparing to those without CHC encapsulation, providing that an anti-cancer component encapsulated by CHC has higher toxic effect to the cells.
# In an embodiment, a plurality of CHC/DMC-GEM having different DMC to GEM ratio including 1:1.2, 1:5, 1:12, and 1:25 are respectively incubated with A549-ON to find a component ratio with better synergistic effect. […]
SMILES,IC50 (A549) [µg/mL],IC50 (A549-ON) [µg/mL]
"Nc1ccn([C@@H]2O[C@H](CO)[C@@H](O)C2(F)F)c(=O)n1 [GEM, Gemcitabine]",117,117
"COc1cc(/C=C/C(O)=C/C(=O)/C=C/c2ccc(O)cc2)ccc1O [DMC, Demethoxycurcumin]",10.3,10
